Reference: patent US10239856B2, “Synthesis of resorcylic acid lactones useful as therapeutic agents” (UNIVERSITY DE STRASBOURG, priority 2008, dated 2019)
Like-named read-outs stand apart in the source and are kept apart here.

How the values were obtained:
SKBr3 = test: Cytotoxicity against SKBr3 breast cancer cells; assay type: cell-based; details: Homo sapiens, SK-BR-3, first value of cell
Procedure: (§1) Compounds of the invention were assayed for cytotoxicity in HCC1954 and SK-BR-3 tumor cells.

Her-2 (HSP90 client) = Her-2 (HSP90 client) degradation (client depletion); assay type: cell-based
Procedure: A number of the compounds of the invention were tested for affinity to HSP90α (see Kim et al., J. Biomol. Screen., 2004, 9, 375), Her-2 (HSP90 client) degradation (see Xu et al., J. Biol. Chem., 2001, 276, 3702), and cytotoxicity against SKBr3 and HCC1954, two breast cancer cell lines which over express Her-2.

HCC1954 = test: Cytotoxicity against HCC1954 breast cancer cells; assay type: cell-based; details: Homo sapiens, second value of cell
Procedure: as §1

ErbB2 in SK-BR3 = test: Degradation of HSP90 client ErbB2 in SK-BR3, Western blotting after 18 hrs treatment; assay type: cell-based; details: SK-BR3, 18 hrs treatment, E-oxime isomer
HSP90α = HSP90α (Homo sapiens, UniProt P07900); test: Affinity to HSP90α; assay type: binding
[1] = system: BT-474 (breast tumor cell line) xenograft; test: BT-474 breast tumor xenograft in CB17/SCID mice; assay type: in vivo; set-up: Regression in tumor volume / Inhibition of tumor growth: dose or concentration left out as unconfirmed
Procedure: FIG. 1 depicts the tumor volume and animal weight change following treatment with compound 13a or control vehicle. Each point represents the mean of measurements from 5 (for vehicle) or 6 (for 13a) animals. The experiment was carried out for 28 days and tumor volumes were determined weekly by caliper measurement. Student's t-test was used to determine the statistical analysis of the difference between tumor volumes of vehicle-treated and drug-treated animals. Individual body weights were also determined weekly. Statistical significance was achieved (comparing tumor volumes in vehicle-treated and drug-treated animals) at day 21 for the q4d schedule (p=0.0497). In comparison, on the q2d schedule increasing statistical significance was achieved on days 14, 21, and 28, when comparing tumor volume of vehicle-treated and drug-treated animals (p=0.012, p=0.007, and p=0.0002, respectively).
Top panels represent hematoxylin & eosin (H & E) stained paraffin sections. Nuclei appear blue in color. The dark blue condensed nuclei in drug-treated tumors (right) are consistent with apoptotic cells. […] Bottom panels represent TUNEL (terminal deoxynucleotidyl transferase-mediated dUTP-biotin nick end labeling)-stained paraffin sections. The high preponderance of reddish-pink nuclei (positive for TUNEL staining) in the drug-treated tumors reflects DNA fragmentation which is characteristic of apoptosis. Blue arrowheads point to characteristic TUNEL positive nuclei.
Two schedules of 100 mg every other day (q2d) or every four days (q4d) during 28 days were investigated.
Based on the in vitro data shown in Table 3, compound 13a was further evaluated in vivo.

HSP90 = details: cited from earlier work
[2] = read-out: Client Depletion; Her-2 degradation
[3] = Her-2 degradation; read-out: Client Depletion

| IC50 (Her-2 (HSP90 client); [2]) [nM] | IC50 (HSP90α; HSP90 affinity) [nM] | IC50 (Her-2 (HSP90 client); [3]) [nM] | IC50 (HSP90α; read-out: HSP90 affinity) [nM] | SMILES | IC50 (SKBr3) [nM] | IC50 (HCC1954) [nM] | Reduction of ErbB2 concentration compared with radicicol and 17-AAG (ErbB2 in SK-BR3) | Weight loss ([1]; q2d and q4d schedules, 28 days) | Inhibition of tumor growth ([1]; q2d or q4d during 28 days) | Regression in tumor volume ([1]; q2d schedule, 28 days) [%] | Tumor histology: cellularity ([1]; q2d schedule, 28 days) | Tumor nuclear TUNEL staining (apoptosis) ([1]; q2d schedule, 28 days) | Inhibitor of HSP90 (HSP90) [nM] |
| --- | --- | --- | --- | --- | --- | --- | --- | --- | --- | --- | --- | --- | --- |
| 26 | 18 | – | – | C[C@@H]1C/C=C/CC/C=C/C(=N/OCC(=O)N2CCCCC2)Cc2cc(O)cc(O)c2C(=O)O1 [13c] | 450 | 630 | significantly more effective than both radicicol and 17-AAG | – | – | – | – | – | – |
| – | – | 35 | 21 | O=C1OCC/C=C/CC/C=C/C(=N/OCC(=O)N2CCCCC2)Cc2c(Cl)c(O)cc(O)c21 [13a] | 125 | 320 | significantly more effective than both radicicol and 17-AAG | Neither the q2d nor the q4d schedules resulted in significant weight loss | dose-dependent inhibition of the tumor growth | 18 | dramatic loss of cellularity | high degree of nuclear TUNEL staining | – |
| – | – | – | – | C[C@@H]1CC2O[C@@H]2CC/C=C/C(=O)Cc2c(Cl)c(O)cc(O)c2C(=O)O1 (some centres unmarked) [pochonin A] | – | – | – | – | – | – | – | – | 90 |
| – | – | > 10000 | 220 | O=C1OCC/C=C/CC/C=C/C(=NOCC(=O)N2CCOCC2)Cc2c(Cl)c(O)cc(O)c21 [13d] | > 10000 | > 10000 | – | – | – | – | – | – | – |
| – | – | 5500 | 110 | O=C(CON=C1/C=C/CC/C=C/CCOC(=O)c2c(O)cc(O)c(Cl)c2C1)NCc1ccccc1 [13j] | 3500 | 8500 | – | – | – | – | – | – | – |
| 50 | 15 | – | – | O=C1OCC/C=C/CC/C=C/C(=N/OCC(=O)N2CCCCC2)Cc2cc(O)cc(O)c21 [13b] | 120 | 220 | significantly more effective than both radicicol and 17-AAG | – | – | – | – | – | – |
